Laboratory results as given in ChEMBL document CHEMBL3352667, “Anti-tumor activity of novel biisoquinoline derivatives against breast cancers” (Bioorg Med Chem Lett, 2014).
Active and inactive are the calls of the source. No cut-off for these calls is given here.

Experiments:
Format in all cases: functional, cell-based
MCF7 = assay: Cytotoxicity against human MCF7 cells assessed as growth inhibition after 48 hrs by methylene blue staining-based assay; conditions: MCF7, 48 h
MDA-MB-231 = assay: Cytotoxicity against human MDA-MB-231 cells assessed as growth inhibition after 48 hrs by methylene blue staining-based assay; conditions: for IC50: MDA-MB-231, 48 h
MDA-MB-468 = assay: Cytotoxicity against human MDA-MB-468 cells assessed as growth inhibition after 48 hrs by methylene blue staining-based assay; conditions: MDA-MB-468, 48 h
BT-474 = assay: Cytotoxicity against human BT474 cells assessed as growth inhibition after 48 hrs by methylene blue staining-based assay; conditions: BT-474, 48 h
T47D = assay: Cytotoxicity against human T47D cells assessed as growth inhibition after 48 hrs by methylene blue staining-based assay

`COc1ccc2c(c1OC)CCn1c[n+]3c(c1-2)-c1ccc(OC)c(OC)c1CC3` was tested, and the IC50 (MCF7) was 7.9 µM, the IC50 (MDA-MB-231) was 18.2 µM and the IC50 (MDA-MB-468) was 2.1 µM. It also gave an IC50 (BT-474) of 0.7 µM and an IC50 (T47D) of 13.5 µM.
In the case of `COc1ccc(CCNC(=O)C(=O)NCCc2ccc(OC)c(OC)c2)cc1OC`, the IC50 (MDA-MB-231) is reported as 45 µM.
`COc1ccc2c(c1)CCn1c[n+]3c(c1-2)-c1ccc(OC)cc1CC3` was tested, and the IC50 (MCF7) was 1.3 µM, the IC50 (MDA-MB-231) was 3.9 µM and the IC50 (MDA-MB-468) was 1.8 µM. For the same compound, the IC50 (BT-474) was 0.3 µM and the IC50 (T47D) was 1 µM.
`COc1cc2c(cc1OC)C(C1=NCCc3cc(OC)c(OC)cc31)=NCC2` was tested, and the Activity (MDA-MB-231) was “inactive”.
In the case of `COc1cc2c(c(OC)c1OC)CCn1c[n+]3c(c1-2)-c1cc(OC)c(OC)c(OC)c1CC3`, the Activity (MDA-MB-231) is reported as “inactive”.
`COc1cc2c(cc1OC)-c1c3[n+](cn1CC2)CCc1cc(OC)c(OC)cc1-3` was tested, and the IC50 (MCF7) was 35 µM, the IC50 (MDA-MB-231) was 19 µM and the IC50 (MDA-MB-468) was 2.6 µM. It also gave an IC50 (BT-474) of 3.1 µM and an IC50 (T47D) of 34 µM.
With `COc1ccc2c(c1OC)C(=O)O[C@@H]2[C@H]1c2c(cc3c(c2OC)OCO3)CCN1C` [NOSCAPINE] the IC50 (MCF7) was 57 µM and the IC50 (MDA-MB-231) was 64 µM.
